The values that follow come from patent US9670242B2, “Tetracyclic anthraquinone derivatives” (Tianjin Hemay Bio-Tech Co., Ltd, priority 2012, dated 2017).

What is called IC50 is the point on the concentration scale where inhibition reaches its midpoint.

One assay relates to A375 cells. The assay can be described thus: A375 cell growth inhibition test (MTT assay). In kind it is cell-based, human. The following applies: 72 h. The method, then:
A375 Cell Growth Inhibition Test (MTT Assay)
(§1) II. Reagents and Consumable Materials
Culture medium: 90% DMEM+10% FBS (fetal calf serum); Pancreatin (0.25% (w/v) solution was formulated with PBS, 0.53 mM of EDTA was added in the formulation); PBS; 96-well culture plate.
(§2) 1. A plate (10 cm) of cells in logarithmic growth phase that were normally cultured was collected;
(§3) 2. The culture solution was sucked out. The plate was washed with 5 mL of PBS once or twice;
(§4) 3. PBS was sucked out. 1.5 mL of 0.25% pancreatin was added to the plate to infiltrate the cells for 1 min;
4. The culture plate was placed in an incubator. Digestion was carried out for about 5 min at 37° C.;
5. 3 mL of complete culture solution was added to the culture plate to stop the digestion. The cells were carefully scoured with micropipette (1 ml) to give a uniform cell suspension. The suspension was implanted into a 96-well cell culture disc by 3000 cells/100 μL per well. The culture plate was incubated overnight under 5% CO2 at 37° C. In day 2, 100 μL of culture solution comprising a compound was added in each well. The plate was further incubated for 72 h under 5% CO2 at 37° C.;
(§5) 6. The culture solution was sucked out;
(§6) 7. 100 μL of serum-free culture solution containing 0.5 mg/mL MTT was added in each well. The plate was incubated for 3 h;
(§7) 8. The culture solution was carefully sucked out;
(§8) 9. 100 μL of DMSO was added in each well and vibrated to dissolve;
(§9) 10. OD values were determined at 490 nM.
(§10) IV. Results and Treatments
(§11) 1. Calculation of Relative Inhibition Ratio The inhibition ratio of a compound on cell growth=(PC−n)/(PC−NC)×100%
(§12) PC: OD values of cells after normal growth in control wells without a compound;
(§13) n: OD values of cells after growth in test wells with a compound;
(§14) NC: Background OD values of blank wells without a compound and cells.
Background: Tetrazolium dyes change colour on reduction, which living cells bring about.

In another assay the test system is B16 cells. The assay can be described thus: B16 cell growth inhibition test (MTT assay). The following applies: 72 h. It counts as cell-based, mouse. The procedure: B16 Cell Growth Inhibition Test (MTT Assay)
as §1
(§15) Culture medium: 90% RPMI1640+10% FBS (fetal calf serum); Pancreatin (0.25% (w/v) solution was formulated with PBS, 0.53 mM of EDTA was added in the formulation); PBS; 96-well culture plate.
as §2, §3, §4
(§16) 4. The culture plate was placed in an incubator. Digestion was carried out for about 1 min at 37° C.;
5. 3 mL of complete culture solution was added to the culture plate to stop the digestion. The cells were carefully scoured with micropipette (1 mL) to give a uniform cell suspension. The suspension was implanted into a 96-well cell culture disc by 2500 cells/100 μL per well. The culture plate was incubated overnight under 5% CO2 at 37° C. In day 2, 100 μL of culture solution comprising a compound was added in each well. The plate was further incubated for 72 h under 5% CO2 at 37° C.;
as §5
7. 100 μl of serum-free culture solution containing 0.5 mg/mL MTT was added in each well. The plate was incubated for 3 h;
as §7, §8, §9, §10, §11, §12, §13, §14

The next assay deals with 786-O cells. The assay can be described thus: 786-O cell growth inhibition test (MTT assay). It counts as cell-based, human. As to conditions: 72 h. The method, then: 786-O Cell Growth Inhibition Test (MTT Assay)
as §1, §15, §2, §3, §4, §16
5. 3 mL of complete culture solution was added to the culture plate to stop the digestion. The cells were carefully scoured with micropipette (1 mL) to give a uniform cell suspension. The suspension was implanted into a 96-well cell culture disc by 2000 cells/100 μL per well. The culture plate was incubated overnight under 5% CO2 at 37° C. In day 2, 100 μL of culture solution comprising a compound was added in each well. The plate was further incubated for 72 h under 5% CO2 at 37° C.;
as §5, §6, §7, §8, §9, §10, §11, §12, §13, §14

The next assay relates to NCI-H446 cells. The assay can be described thus: NCI-H446 cell growth inhibition test (MTT assay). The following applies: growth inhibition at 222 nM, 70 h. It counts as cell-based, human. In outline: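 Human small cell lung cancer cells in RPMI-1640 with 10% FBS were seeded at 4000 per well and treated with compound for 70 h at 37° C, 5% CO2. MTT at 0.5 mg/mL was added for 3 h, formazan was dissolved in DMSO and OD read at 490 nm. Inhibition ratio was calculated against untreated and blank wells.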

The subject of a further assay is 22Rv1 cells. The assay can be described thus: 22Rv1 cell growth inhibition test (SRB assay). In kind it is cell-based, human. As to conditions: growth inhibition at 222 nM, 73 h. The method in brief:
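Human prostate cancer 22Rv1 cells seeded at 7000 cells/well, incubated overnight, then exposed to compound for 73 h at 37° C, 5% CO2. TCA-fixed cells stained with SRB, dye dissolved in 10 mM Tris, OD read at 570 nm. Inhibition = (PC−n)/(PC−NC)×100% against untreated and cell-free blank wells.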

For the compound `COc1cccc2c1C(=O)c1c(O)c3c(c(O)c1C2=O)CC(O)(C(=O)COC(=O)CCC(=O)O)CC3OC1CC(n2cccc2)C(O)C(C)O1` (stereo not shown) [Compound A, 3′-pyrrolyldoxorubicin-14-oxo-succinic acid monoester, reference compound], the IC50 came to 207 nM with A375 cells, 32 nM in the assay on B16 cells and 180 nM with 786-O cells.

Consider `COc1cccc2c1C(=O)c1c(O)c3c(c(O)c1C2=O)CC(O)(C(=O)COC(=O)CCC(=O)NCCOCCO)CC3OC1CC(n2cccc2)C(O)C(C)O1` (stereo not shown) [Example 62], for which the “Inhibition Ratio (%)” value in the assay on NCI-H446 cells came to 64.6%; in the assay with 22Rv1 cells, 57%. For the same compound, the IC50 with B16 cells came to 3 nM; with 786-O cells, 110 nM.

`CC(=O)O.COc1cccc2c1C(=O)c1c(O)c3c(c(O)c1C2=O)CC(O)(C(=O)COC(=O)CCC(=O)NCCCN1CCN(C)CC1)CC3O[C@H]1C[C@H](n2cccc2)[C@H](O)[C@H](C)O1` (stereo partly drawn) [Example 81, 10-((3′-(pyrrol-1-yll)-2′,3′,6′-trideoxy-alphal-l-lyxo-hexylpyranyl)oxy)-7,8,9,10-tetrahydro-6,8,11-trihydroxy-13-oxo-14-(4-((3-(4-methylpiperazin-1-yl)propyl)amino)-4-oxo-butyrato)-1-methoxy-5,12-naphthalenedione acetate]: the “Inhibition Ratio (%)” value in the assay on NCI-H446 cells stood at 56.8%; with 22Rv1 cells, 56.5%. This compound also had an IC50 in the assay with A375 cells of 67 nM.
